Assay results published in patent US12268674B2, “Mi-2β inhibitor as an immunotherapy agent” (BioVentures, LLC, priority 2021, dated 2025).

Tests used:
Assay in all cases: ATPase profile (ATP acyl phosphate probe)
Type in all cases: binding
HSP60 = molecular target: T1, HSP60 (Homo sapiens, UniProt P10809); conditions: HSP60, SEQ ID NO: 94, ATP BS
T1 construct: to get the native cell lysate; endogenous in cells; host or cells: A375

KIAA0564 = molecular target: T2, KIAA0564 (Homo sapiens, UniProt A3KMH1); conditions: KIAA0564, SEQ ID NO: 113, ATP BS
T2 construct: to get the native cell lysate; endogenous in cells; host or cells: A375

PPCS = molecular target: T3, PPCS (Homo sapiens, UniProt Q9HAB8)
T3 construct: to get the native cell lysate; endogenous in cells; host or cells: A375 cell lysate

HSP90B2P, TRA1 = molecular target: T4, HSP90B2P, TRA1 (Homo sapiens, UniProt P14625); conditions: TRA1, SEQ ID NO: 99, ATP BS, read-out: Inhibition (%) by 1 μM Z36-MP5
T4 construct: to get the native cell lysate; endogenous in cells; host or cells: A375

YME1L1 = molecular target: T5, YME1L1 (Homo sapiens, UniProt Q96TA2); conditions: YME1L1, SEQ ID NO: 233, ATP BS
T5 construct: to get the native cell lysate; endogenous in cells; host or cells: A375 cell lysate

TOR3A = molecular target: T6, TOR3A (Homo sapiens, UniProt Q9H497); conditions: SEQ ID NO: 206, ATP BS
T6 construct: to get the native cell lysate; endogenous in cells; host or cells: A375 cell lysate

ASNA1 = molecular target: T7, ASNA1 (Homo sapiens, UniProt O43681)
T7 construct: to get the native cell lysate; host or cells: A375 cell lysate

DDX39 = molecular target: T8, DDX39 (Homo sapiens, UniProt O00148); conditions: DDX39, SEQ ID NO: 69, ATP BS
T8 construct: endogenous in cells; host or cells: A375 cell lysate

RFC4 = molecular target: T9, RFC4 (Homo sapiens, UniProt P35249); conditions: RFC4, SEQ ID NO: 185, ATP BS
T9 construct: to get the native cell lysate; endogenous in cells; host or cells: A375 cell lysate

PMVK = molecular target: T10, PMVK (Homo sapiens, UniProt Q15126); conditions: SEQ ID NO: 163, ATP BS
T10 construct: to get the native cell lysate; endogenous in cells; host or cells: A375 cell lysate

PC = molecular target: T11, PC (Homo sapiens, UniProt P11498); conditions: SEQ ID NO: 152, ATP BS
T11 construct: to get the native cell lysate; endogenous in cells; host or cells: A375

SMC3 = molecular target: T12, SMC3 (Homo sapiens, UniProt Q9UQE7); conditions: SMC3, SEQ ID NO: 194, ATP BS
T12 construct: to get the native cell lysate; endogenous in cells; host or cells: A375 cell lysate

PSMC3 = molecular target: T13, PSMC3 (Homo sapiens, UniProt P17980); conditions: PSMC3, SEQ ID NO: 175, ATP BS
T13 construct: to get the native cell lysate; endogenous in cells; host or cells: A375 cell lysate

PMS2 = molecular target: T14, PMS2 (Homo sapiens, UniProt P54278); conditions: PMS2, SEQ ID NO: 162, ATP BS
T14 construct: to get the native cell lysate; endogenous in cells; host or cells: A375 cell lysate

DCTPP1 = molecular target: T15, DCTPP1 (Homo sapiens, UniProt Q9H773); conditions: DCTPP1, SEQ ID NO: 65, ATP BS
T15 construct: endogenous in cells; host or cells: A375 cell lysate

HSPA2 = molecular target: T16, HSPA2 (Homo sapiens, UniProt P54652)
T16 construct: to get the native cell lysate; endogenous in cells; host or cells: A375

TOP2A, TOP2B = conditions: SEQ ID NO: 202, ATP BS
AK5 = molecular target: T17, AK5 (Homo sapiens, UniProt Q9Y6K8); conditions: AK5, SEQ ID NO: 36, ATP BS
T17 construct: to get the native cell lysate; host or cells: A375 cell lysate

HPRT1 = molecular target: T18, HPRT1 (Homo sapiens, UniProt P00492); conditions: HPRT1, SEQ ID NO: 93, ATP BS
T18 construct: to get the native cell lysate; endogenous in cells; host or cells: A375

ABCE1 = molecular target: T19, ABCE1 (Homo sapiens, UniProt P61221); conditions: ABCE1, SEQ ID NO: 15, ATP BS
T19 construct: to get the native cell lysate; host or cells: A375 cell lysate

ACTR3 = molecular target: T20, ACTR3 (Homo sapiens, UniProt P61158)
T20 construct: to get the native cell lysate; host or cells: A375 cell lysate

AK7 = molecular target: T21, AK7 (Homo sapiens, UniProt Q96M32); conditions: AK7, SEQ ID NO: 37, ATP BS
T21 construct: to get the native cell lysate; host or cells: A375 cell lysate

ABCB6 = molecular target: T22, ABCB6 (Homo sapiens, UniProt Q9NP58); conditions: ABCB6, SEQ ID NO: 3, ATP BS
T22 construct: to get the native cell lysate; host or cells: A375 cell lysate

PFKFB2 = molecular target: T23, PFKFB2 (Homo sapiens, UniProt O60825); conditions: PFKFB2, SEQ ID NO: 158, ATP BS
T23 construct: to get the native cell lysate; endogenous in cells; host or cells: A375 cell lysate

SUCLA2 = molecular target: T24, SUCLA2 (Homo sapiens, UniProt Q9P2R7)
T24 construct: to get the native cell lysate; endogenous in cells; host or cells: A375 cell lysate

OLA1 = molecular target: T25, OLA1 (Homo sapiens, UniProt Q9NTK5); conditions: OLA1, SEQ ID NO: 150, ATP BS
T25 construct: to get the native cell lysate; endogenous in cells; host or cells: A375

T7 sequence (O43681 whole entry): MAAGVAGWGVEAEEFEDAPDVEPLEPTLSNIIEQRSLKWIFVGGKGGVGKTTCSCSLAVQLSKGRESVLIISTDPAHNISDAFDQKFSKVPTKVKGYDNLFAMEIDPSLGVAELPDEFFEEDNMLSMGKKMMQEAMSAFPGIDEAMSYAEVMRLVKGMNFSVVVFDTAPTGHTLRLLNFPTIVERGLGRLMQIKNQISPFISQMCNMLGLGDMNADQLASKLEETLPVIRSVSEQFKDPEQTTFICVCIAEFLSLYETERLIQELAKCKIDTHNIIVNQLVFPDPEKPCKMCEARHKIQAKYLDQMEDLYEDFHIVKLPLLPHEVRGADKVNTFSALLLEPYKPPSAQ
T3 sequence (Q9HAB8 whole entry): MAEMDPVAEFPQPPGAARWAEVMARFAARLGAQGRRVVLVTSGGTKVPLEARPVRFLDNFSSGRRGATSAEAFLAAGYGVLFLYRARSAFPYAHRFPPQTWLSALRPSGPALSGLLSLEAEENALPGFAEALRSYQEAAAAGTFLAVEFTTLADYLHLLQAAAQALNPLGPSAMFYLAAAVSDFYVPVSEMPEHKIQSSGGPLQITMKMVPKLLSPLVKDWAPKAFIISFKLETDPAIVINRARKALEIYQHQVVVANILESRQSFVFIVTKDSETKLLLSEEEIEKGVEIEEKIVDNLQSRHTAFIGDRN
T24 sequence (Q9P2R7 53-463): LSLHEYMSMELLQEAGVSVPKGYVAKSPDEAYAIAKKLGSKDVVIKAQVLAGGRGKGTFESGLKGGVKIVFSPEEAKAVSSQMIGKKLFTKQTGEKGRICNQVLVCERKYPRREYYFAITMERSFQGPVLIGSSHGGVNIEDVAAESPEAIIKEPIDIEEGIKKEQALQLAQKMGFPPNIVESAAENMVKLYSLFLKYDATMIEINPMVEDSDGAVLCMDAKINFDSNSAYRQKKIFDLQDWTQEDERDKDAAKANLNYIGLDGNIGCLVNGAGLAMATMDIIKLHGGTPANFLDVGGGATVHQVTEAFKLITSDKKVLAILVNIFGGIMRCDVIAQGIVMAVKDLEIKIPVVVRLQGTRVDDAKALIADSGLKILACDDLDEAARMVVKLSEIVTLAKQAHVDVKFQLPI
T24 sequence (P53597 41-346 partner): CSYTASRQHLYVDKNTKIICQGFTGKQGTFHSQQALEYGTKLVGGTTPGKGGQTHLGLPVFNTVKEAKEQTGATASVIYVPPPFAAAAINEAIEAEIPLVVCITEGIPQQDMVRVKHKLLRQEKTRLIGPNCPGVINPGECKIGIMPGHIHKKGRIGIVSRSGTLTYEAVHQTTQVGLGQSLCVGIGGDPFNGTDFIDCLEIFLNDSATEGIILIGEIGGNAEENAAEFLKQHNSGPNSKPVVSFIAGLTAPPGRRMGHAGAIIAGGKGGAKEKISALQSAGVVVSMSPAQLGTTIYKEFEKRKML
T16 sequence (P54652 whole entry): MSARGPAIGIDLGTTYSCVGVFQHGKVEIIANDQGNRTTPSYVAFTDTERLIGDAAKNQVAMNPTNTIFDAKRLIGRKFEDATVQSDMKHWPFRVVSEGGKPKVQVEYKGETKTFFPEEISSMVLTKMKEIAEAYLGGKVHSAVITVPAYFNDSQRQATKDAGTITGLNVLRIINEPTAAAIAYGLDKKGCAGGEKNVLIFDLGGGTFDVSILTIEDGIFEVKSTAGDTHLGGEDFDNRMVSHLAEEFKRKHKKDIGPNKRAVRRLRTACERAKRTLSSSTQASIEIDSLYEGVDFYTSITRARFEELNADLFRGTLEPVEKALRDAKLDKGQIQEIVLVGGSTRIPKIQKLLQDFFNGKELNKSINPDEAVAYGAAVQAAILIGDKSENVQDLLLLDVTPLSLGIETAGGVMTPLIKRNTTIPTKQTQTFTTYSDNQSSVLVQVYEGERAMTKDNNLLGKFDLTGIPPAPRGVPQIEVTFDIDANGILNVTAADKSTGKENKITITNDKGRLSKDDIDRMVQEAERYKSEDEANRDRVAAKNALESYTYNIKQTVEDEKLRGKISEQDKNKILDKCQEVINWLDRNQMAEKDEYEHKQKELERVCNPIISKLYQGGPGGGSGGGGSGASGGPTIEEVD
T21 sequence (Q96M32 whole entry): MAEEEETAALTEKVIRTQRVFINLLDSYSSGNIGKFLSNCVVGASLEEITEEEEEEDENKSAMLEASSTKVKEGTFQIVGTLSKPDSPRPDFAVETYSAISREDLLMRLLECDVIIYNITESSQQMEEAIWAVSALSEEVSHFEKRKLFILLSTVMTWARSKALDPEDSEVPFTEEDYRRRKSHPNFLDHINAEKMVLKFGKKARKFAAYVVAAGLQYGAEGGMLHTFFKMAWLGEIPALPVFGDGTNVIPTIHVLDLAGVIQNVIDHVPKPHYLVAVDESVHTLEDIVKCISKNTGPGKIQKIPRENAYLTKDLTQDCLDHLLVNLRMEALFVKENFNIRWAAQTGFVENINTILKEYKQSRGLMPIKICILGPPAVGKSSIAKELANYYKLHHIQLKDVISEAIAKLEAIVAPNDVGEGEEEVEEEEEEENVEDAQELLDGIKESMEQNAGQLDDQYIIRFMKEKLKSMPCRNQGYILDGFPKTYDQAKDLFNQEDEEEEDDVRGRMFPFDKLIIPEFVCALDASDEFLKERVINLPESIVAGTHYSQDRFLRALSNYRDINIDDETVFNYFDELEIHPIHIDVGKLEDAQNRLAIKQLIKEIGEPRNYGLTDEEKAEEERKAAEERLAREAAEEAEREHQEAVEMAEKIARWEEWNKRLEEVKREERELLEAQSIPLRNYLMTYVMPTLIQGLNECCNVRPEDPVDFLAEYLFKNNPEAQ
T10 sequence (Q15126 whole entry): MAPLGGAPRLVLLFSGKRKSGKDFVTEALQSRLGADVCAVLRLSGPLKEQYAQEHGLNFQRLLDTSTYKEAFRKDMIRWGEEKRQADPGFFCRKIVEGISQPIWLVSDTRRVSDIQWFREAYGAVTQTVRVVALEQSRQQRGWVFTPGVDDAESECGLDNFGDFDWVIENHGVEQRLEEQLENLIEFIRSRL
T11 sequence (P11498 21-1178): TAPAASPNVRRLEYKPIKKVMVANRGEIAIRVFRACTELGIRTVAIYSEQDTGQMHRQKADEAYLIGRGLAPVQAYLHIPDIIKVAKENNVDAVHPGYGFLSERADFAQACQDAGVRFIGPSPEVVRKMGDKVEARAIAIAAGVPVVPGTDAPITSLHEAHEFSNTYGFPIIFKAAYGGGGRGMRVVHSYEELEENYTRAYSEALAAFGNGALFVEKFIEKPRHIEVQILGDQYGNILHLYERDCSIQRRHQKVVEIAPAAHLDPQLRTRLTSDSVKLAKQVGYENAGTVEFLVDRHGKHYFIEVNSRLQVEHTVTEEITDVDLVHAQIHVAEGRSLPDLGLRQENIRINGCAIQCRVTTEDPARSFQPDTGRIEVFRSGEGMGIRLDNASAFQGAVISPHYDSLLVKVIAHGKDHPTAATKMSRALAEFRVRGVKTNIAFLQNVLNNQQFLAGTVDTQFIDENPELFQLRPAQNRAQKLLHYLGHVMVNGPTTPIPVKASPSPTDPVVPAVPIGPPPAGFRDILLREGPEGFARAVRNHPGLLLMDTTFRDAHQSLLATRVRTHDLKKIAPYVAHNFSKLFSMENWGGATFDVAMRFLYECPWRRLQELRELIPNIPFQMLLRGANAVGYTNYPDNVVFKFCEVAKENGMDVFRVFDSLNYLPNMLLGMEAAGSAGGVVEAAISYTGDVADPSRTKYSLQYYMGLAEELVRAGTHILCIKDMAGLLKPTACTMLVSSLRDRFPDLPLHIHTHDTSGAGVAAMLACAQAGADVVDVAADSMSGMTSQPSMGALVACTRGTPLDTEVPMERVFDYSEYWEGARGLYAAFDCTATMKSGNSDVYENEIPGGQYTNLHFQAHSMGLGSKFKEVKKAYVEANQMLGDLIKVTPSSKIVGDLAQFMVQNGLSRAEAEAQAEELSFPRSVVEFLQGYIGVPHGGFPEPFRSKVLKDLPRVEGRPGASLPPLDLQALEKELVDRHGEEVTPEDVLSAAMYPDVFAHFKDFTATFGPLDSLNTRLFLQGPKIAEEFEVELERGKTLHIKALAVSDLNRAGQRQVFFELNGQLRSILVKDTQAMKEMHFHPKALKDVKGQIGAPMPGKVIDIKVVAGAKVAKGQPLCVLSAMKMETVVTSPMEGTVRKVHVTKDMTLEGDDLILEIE
T6 sequence (Q9H497 26-397): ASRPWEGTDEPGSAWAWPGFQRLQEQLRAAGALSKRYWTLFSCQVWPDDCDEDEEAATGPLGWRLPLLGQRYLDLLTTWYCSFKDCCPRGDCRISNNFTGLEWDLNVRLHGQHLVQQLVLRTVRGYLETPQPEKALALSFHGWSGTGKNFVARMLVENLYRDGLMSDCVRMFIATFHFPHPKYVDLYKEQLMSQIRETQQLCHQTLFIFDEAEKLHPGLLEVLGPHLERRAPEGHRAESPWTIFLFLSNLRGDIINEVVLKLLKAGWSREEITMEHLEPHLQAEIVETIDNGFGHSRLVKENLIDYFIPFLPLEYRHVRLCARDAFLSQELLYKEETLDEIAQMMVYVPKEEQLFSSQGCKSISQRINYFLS
T23 sequence (O60825 whole entry): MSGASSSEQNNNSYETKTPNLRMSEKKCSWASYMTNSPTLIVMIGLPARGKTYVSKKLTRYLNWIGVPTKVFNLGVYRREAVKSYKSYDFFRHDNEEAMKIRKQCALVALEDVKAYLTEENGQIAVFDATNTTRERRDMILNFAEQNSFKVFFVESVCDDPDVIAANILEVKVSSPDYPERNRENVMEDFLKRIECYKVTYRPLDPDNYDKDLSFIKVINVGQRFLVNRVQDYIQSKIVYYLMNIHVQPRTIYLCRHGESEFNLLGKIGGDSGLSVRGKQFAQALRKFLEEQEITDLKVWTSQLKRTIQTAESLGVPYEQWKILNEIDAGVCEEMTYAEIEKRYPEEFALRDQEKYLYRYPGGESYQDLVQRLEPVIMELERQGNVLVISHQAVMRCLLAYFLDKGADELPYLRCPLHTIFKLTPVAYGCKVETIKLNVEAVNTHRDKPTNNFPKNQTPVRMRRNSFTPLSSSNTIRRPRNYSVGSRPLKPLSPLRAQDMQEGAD

Cn1c(=O)[nH]c2ccc(-c3cccc(C(=O)NC4CCn5ccnc5C4)c3)cc21 (stereo not shown) [Z36-MP5, 3-(3-methyl-2-oxo-2,3-dihydro-1H-benzo[d]imidazol-5-yl)-N-(5,6,7,8-tetrahydroimidazo[1,2-a]pyridin-7-yl)benzamide]
Inhibition (%) by 1 μM Z36-MP5 (HSP60): 11.39% | Inhibition (%) by 1 μM Z36-MP5 (KIAA0564): 11.07% | Inhibition (%) by 1 μM Z36-MP5 (PPCS; SEQ ID NO: 165, ATP BS): −7.44% | Inhibition (%) by 1 μM Z36-MP5 (PPCS; SEQ ID NO: 166, ATP BS): −9.61% | inhibition at 1 µM (HSP90B2P, TRA1): -6.72% | Inhibition (%) by 1 μM Z36-MP5 (YME1L1): −10.37% | Inhibition (%) by 1 μM Z36-MP5 (TOR3A): 6.55% | Inhibition (%) by 1 μM Z36-MP5 (ASNA1; ASNA1, SEQ ID NO: 41, ATP BS): −3.04% | Inhibition (%) by 1 μM Z36-MP5 (ASNA1; ASNA1, SEQ ID NO: 42, ATP BS): 0.73% | Inhibition (%) by 1 μM Z36-MP5 (DDX39): −8.90% | Inhibition (%) by 1 μM Z36-MP5 (RFC4): −6.66% | Inhibition (%) by 1 μM Z36-MP5 (PMVK): −5.60% | Inhibition (%) by 1 μM Z36-MP5 (PC): −15.19% | Inhibition (%) by 1 μM Z36-MP5 (SMC3): −10.19% | Inhibition (%) by 1 μM Z36-MP5 (PSMC3): 5.71% | Inhibition (%) by 1 μM Z36-MP5 (PMS2): 3.36% | Inhibition (%) by 1 μM Z36-MP5 (DCTPP1): 12.74% | Inhibition (%) by 1 μM Z36-MP5 (HSPA2; HSPA2, SEQ ID NO: 102, ATP BS): −1.50% | Inhibition (%) by 1 μM Z36-MP5 (HSPA2; HSPA2, SEQ ID NO: 103, ATP BS): −5.18% | Inhibition (%) by 1 μM Z36-MP5 (TOP2A, TOP2B): 11.93% | Inhibition (%) by 1 μM Z36-MP5 (AK5): 2.21% | Inhibition (%) by 1 μM Z36-MP5 (HPRT1): 12.92% | Inhibition (%) by 1 μM Z36-MP5 (ABCE1): −4.76% | Inhibition (%) by 1 μM Z36-MP5 (ACTR3; ACTR3, SEQ ID NO: 27, ATP BS): 5.36% | Inhibition (%) by 1 μM Z36-MP5 (ACTR3; ACTR3, SEQ ID NO: 28, ATP BS): −0.28% | Inhibition (%) by 1 μM Z36-MP5 (AK7): 13.86% | Inhibition (%) by 1 μM Z36-MP5 (ABCB6): 8.49% | Inhibition (%) by 1 μM Z36-MP5 (PFKFB2): 14.74% | Inhibition (%) by 1 μM Z36-MP5 (SUCLA2; SUCLA2, SEQ ID NO: 198, ATP BS): −0.65% | Inhibition (%) by 1 μM Z36-MP5 (SUCLA2; SUCLA2, SEQ ID NO: 199, ATP BS): 9.97% | Inhibition (%) by 1 μM Z36-MP5 (OLA1): −0.68%
